Results on 10 compounds are retold here after ChEMBL document CHEMBL1201862, “PubChem BioAssay data set” (2004).

Molecules are shown by their SMILES.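 Compound exposure: 48 hours, 5 concentrations, 96-well plates. GI50 is the concentration that inhibits growth by half.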 The source made the active and inactive calls. No stated cut-off is given here; in the data, active = GI50 up to about 1.1 µM and inactive = higher. Where only a bound is given, the exact number is not on record here.

Some test systems named below: BT-549; COLO 205; DU-145; EKVX; HCT-116; HCT-15; HOP-92; KM12; LOX IMVI; MDA-N; NCI-H226; OVCAR-3; RXF 393; SF-539; SK-MEL-28; SK-MEL-2; TK-10; U-251; UACC-257; UACC-62.
Common to all, as to assay: NCI anticancer screen, dose series, 48 h

Take `CCN(CC)CCNC(=O)c1ccc(C)c(OCc2ccccc2)c1[N+](=O)[O-]`: the GI50 in the assay on BT-549 was > 35.8 µM (inactive); in the assay with COLO 205, 16 µM (inactive); in the assay on DU-145 it was > 90.2 µM (inactive); in the assay on EKVX it was 68.5 µM (inactive); in the assay with HCT-116 it was 23 µM (inactive); with HCT-15, 21 µM. Moreover, the GI50 in the assay with HOP-92 is 24.9 µM (inactive); in the assay with KM12, 39.9 µM (inactive); in the assay on LOX IMVI, 22.5 µM (inactive); in the assay on MDA-N, 19.9 µM (inactive); in the assay on NCI-H226, 44.8 µM (inactive); in the assay on OVCAR-3 it was 43.9 µM (inactive). In addition, the GI50 is 52.5 µM (inactive) with RXF 393; 33.7 µM (inactive) in the assay on SF-539; 19.4 µM (inactive) in the assay on SK-MEL-28; 21.2 µM (inactive) in the assay on SK-MEL-2; 61.2 µM (inactive) with TK-10; 39.7 µM (inactive) in the assay with U-251. Also, the GI50 was 19.1 µM (inactive) in the assay on UACC-257 and 20.7 µM (inactive) in the assay on UACC-62.
As for `COc1cc(/C=C/C(=O)c2c([O-])on[n+]2-c2ccccc2)ccc1O`, the GI50 in the assay with BT-549 was 2.99 µM (inactive); with COLO 205, 12.1 µM (inactive); with DU-145 it was 2.34 µM (inactive); with EKVX, 3.72 µM (inactive); in the assay with HCT-116 it was 2.19 µM (inactive); in the assay on HCT-15, 2.13 µM. The GI50 with HOP-92 is 2.4 µM (inactive); with KM12 it was 2.31 µM (inactive); with LOX IMVI, 2.09 µM (inactive); with MDA-N, 2.32 µM (inactive); with NCI-H226 it was 5.53 µM (inactive); in the assay with OVCAR-3, 2.29 µM (inactive). Further, the GI50 in the assay on RXF 393 was 2 µM (inactive); with SF-539 it was 2.58 µM (inactive); with SK-MEL-28, 2.62 µM (inactive); in the assay on SK-MEL-2, 2.31 µM (inactive); in the assay with TK-10 it was 3.29 µM (inactive); with U-251, 3.1 µM (inactive). The GI50 was 3.87 µM (inactive) in the assay with UACC-257 and 3.44 µM (inactive) in the assay on UACC-62.
For `CNCCCNC1(c2cc3ccccc3s2)CCCCC1`, the GI50 was 14.6 µM (inactive) in the assay on BT-549; 1.79 µM (inactive) in the assay on COLO 205; 11.9 µM (inactive) with DU-145; 13.3 µM (inactive) in the assay with EKVX; 3.56 µM (inactive) in the assay on HCT-116; 8.43 µM with HCT-15. For the same compound, the GI50 with HOP-92 is 2.39 µM (inactive); with KM12, 5.61 µM (inactive); in the assay with LOX IMVI it was 2.79 µM (inactive); with MDA-N it was 2.2 µM (inactive); in the assay with NCI-H226, 19.5 µM (inactive); with OVCAR-3, 12.5 µM (inactive). For the same compound, the GI50 was 1.36 µM (inactive) in the assay with RXF 393; 2.36 µM (inactive) in the assay on SF-539; 1.64 µM (inactive) in the assay on SK-MEL-28; 4.59 µM (inactive) in the assay on SK-MEL-2; 6.31 µM (inactive) with TK-10; 4.65 µM (inactive) in the assay with U-251. Moreover, the GI50 in the assay on UACC-257 was 1.76 µM (inactive); in the assay with UACC-62, 1.94 µM (inactive).
On to `Cc1cc(N2CCOCC2)nc2ccc(Cc3ccc4nc(N5CCOCC5)cc(C)c4c3)cc12`, for which the GI50 was 60.7 µM (inactive) in the assay with BT-549; 13.3 µM (inactive) with COLO 205; > 100 µM (inactive) in the assay on DU-145; 20.7 µM (inactive) in the assay on EKVX; 21.9 µM (inactive) with HCT-116; 41.8 µM in the assay with HCT-15. In addition, the GI50 with HOP-92 was > 100 µM (inactive); with KM12 it was > 100 µM (inactive); with LOX IMVI, 32.4 µM (inactive); with MDA-N it was 36.6 µM (inactive); in the assay with NCI-H226, 33.3 µM (inactive); with OVCAR-3 it was 33.3 µM (inactive). Also, the GI50 in the assay with RXF 393 is 25.9 µM (inactive); in the assay on SF-539, 24.2 µM (inactive); in the assay on SK-MEL-28 it was 39.4 µM (inactive); with SK-MEL-2 it was 63.5 µM (inactive); in the assay on TK-10, 29.4 µM (inactive); in the assay with U-251, 26.7 µM (inactive). The GI50 in the assay on UACC-257 is 25.6 µM (inactive); with UACC-62 it was 45.8 µM (inactive).
As for `N#CC(NCCc1ccccc1)c1ccccc1` (stereo not given), the GI50 in the assay on BT-549 is > 100 µM (inactive); in the assay on COLO 205 it was > 100 µM (inactive); in the assay with DU-145, > 100 µM (inactive); in the assay with EKVX, > 100 µM (inactive); with HCT-116 it was > 100 µM (inactive); in the assay with HCT-15, > 100 µM. Besides, the GI50 in the assay with HOP-92, in the assay on KM12, in the assay on LOX IMVI, in the assay with MDA-N, with NCI-H226 and with OVCAR-3 was > 100 µM (inactive) throughout. The GI50 with RXF 393, in the assay with SF-539, with SK-MEL-28, in the assay with SK-MEL-2, in the assay on TK-10 and with U-251 was > 100 µM (inactive) throughout. For the same compound, the GI50 with UACC-257 and in the assay with UACC-62 was > 100 µM (inactive) each time.
Consider `C[C@]12CC[C@@H]3c4ccc(O)cc4CC[C@H]3[C@@H]1CC[C@@H]2OP(=O)(O)O`, for which the GI50 with BT-549 is > 100 µM (inactive); in the assay on COLO 205 it was > 100 µM (inactive); in the assay with DU-145, > 100 µM (inactive); with EKVX it was > 100 µM (inactive); in the assay with HCT-116, > 100 µM (inactive); in the assay with HCT-15 it was > 100 µM. The GI50 in the assay on HOP-92, in the assay on KM12, in the assay with LOX IMVI, in the assay with MDA-N, in the assay with NCI-H226 and with OVCAR-3 was > 100 µM (inactive) throughout. Also, the GI50 in the assay on RXF 393, with SF-539, in the assay on SK-MEL-28, in the assay with SK-MEL-2, in the assay on TK-10 and in the assay with U-251 was > 100 µM (inactive) each time. Further, the GI50 with UACC-257 and in the assay with UACC-62 was > 100 µM (inactive) each time.
Regarding `COC1=C(C)C(=O)C2=C(C1=O)C1C3CC4=C(C(=O)C(OC)=C(C)C4=O)C(CNC(=O)C(C)O)N3C(C#N)C(C2)N1C` (stereo not given), the GI50 is < 0.01 µM (active) with BT-549; < 0.01 µM (active) in the assay with COLO 205; 0.016 µM (active) with DU-145; 0.0199 µM (active) with EKVX; 0.0465 µM (active) in the assay on HCT-116; 0.0169 µM with HCT-15. Further, the GI50 in the assay with HOP-92 is < 0.01 µM (active); with KM12, 0.0119 µM (active); in the assay on LOX IMVI, < 0.01 µM (active); with MDA-N, < 0.01 µM (active); with NCI-H226, 0.0212 µM (active); with OVCAR-3 it was < 0.01 µM (active). Moreover, the GI50 is < 0.0121 µM (active) in the assay on RXF 393; < 0.01 µM (active) in the assay with SF-539; < 0.01 µM (active) with SK-MEL-28; < 0.01 µM (active) with SK-MEL-2; 0.0353 µM (active) in the assay with TK-10; < 0.01 µM (active) in the assay with U-251. Further, the GI50 with UACC-257 and in the assay with UACC-62 was < 0.01 µM (active) each time.
In the case of `CC(NNC(=O)c1cc[n+]([BH2-]C#N)cc1)c1cccc(C(F)(F)F)c1` (stereo not given), the GI50 with BT-549 is > 100 µM (inactive); with COLO 205, > 100 µM (inactive); in the assay on DU-145, > 100 µM (inactive); in the assay with EKVX, > 100 µM (inactive); in the assay on HCT-116 it was 82 µM (inactive); in the assay on HCT-15 it was 68.5 µM. Moreover, the GI50 in the assay with HOP-92 was > 100 µM (inactive); with KM12, > 100 µM (inactive); in the assay with LOX IMVI, 71.6 µM (inactive); in the assay on MDA-N, 81.3 µM (inactive); with NCI-H226 it was > 100 µM (inactive); in the assay on OVCAR-3 it was 89.3 µM (inactive). In addition, the GI50 is 60.1 µM (inactive) in the assay on RXF 393; > 100 µM (inactive) with SF-539; > 100 µM (inactive) with SK-MEL-28; > 100 µM (inactive) with SK-MEL-2; > 100 µM (inactive) in the assay on TK-10; 88.7 µM (inactive) with U-251. Also, the GI50 in the assay on UACC-257 is 68.2 µM (inactive); in the assay on UACC-62 it was 73.3 µM (inactive).
As to `O=C(/C=C/C(Cl)(Cl)Cl)Nc1ccc(Cl)cc1`, the GI50 with BT-549 is 17.2 µM (inactive); in the assay on COLO 205, 2.19 µM (inactive); with DU-145 it was 16.9 µM (inactive); in the assay with EKVX, 5.02 µM (inactive); with HCT-116, 4.73 µM (inactive); with HCT-15, 3.56 µM. In addition, the GI50 in the assay on HOP-92 was 2.12 µM (inactive); in the assay with KM12 it was 2.05 µM (inactive); with LOX IMVI it was 0.8 µM (active); in the assay on MDA-N it was 3.44 µM (inactive); with NCI-H226, 15.1 µM (inactive); with OVCAR-3, 6.89 µM (inactive). For the same compound, the GI50 is 3.01 µM (inactive) with RXF 393; 1.99 µM (inactive) in the assay with SF-539; 18.3 µM (inactive) in the assay on SK-MEL-28; 8.59 µM (inactive) with SK-MEL-2; 2.35 µM (inactive) with TK-10; 11.6 µM (inactive) in the assay with U-251. Also, the GI50 in the assay on UACC-257 is 18.3 µM (inactive); with UACC-62, 7.64 µM (inactive).
In the case of `c1nc(N2CC2)c2cnn(C3CCCCO3)c2n1` (stereo not given), the GI50 with BT-549 was > 100 µM (inactive); with COLO 205, > 100 µM (inactive); in the assay on DU-145, > 100 µM (inactive); in the assay with EKVX, > 100 µM (inactive); with HCT-116 it was > 100 µM (inactive); in the assay with HCT-15 it was > 100 µM. Besides, the GI50 with HOP-92, with KM12, in the assay with LOX IMVI, in the assay with MDA-N, in the assay on NCI-H226 and in the assay on OVCAR-3 was > 100 µM (inactive) throughout. Further, the GI50 with RXF 393, in the assay with SF-539, with SK-MEL-28, in the assay with SK-MEL-2, in the assay with TK-10 and with U-251 was > 100 µM (inactive) each time. The GI50 in the assay with UACC-257 and with UACC-62 was > 100 µM (inactive) throughout.
